The source of these data is patent publication US4663320A, “(2-oxo-1,2,3,5-tetrahydroimidazo[2,1-b]quinoazolinyl)oxyalkylamides, compositions and the use thereof” (Syntex (U.S.A.) Inc., priority 1985, dated 1987).

The structures appear in SMILES notation.

Test [1] has as its system Human platelet cyclic AMP phosphodiesterase. As to the kind of experiment: Cyclic AMP phosphodiesterase assay (human platelet). In kind it is biochemical. The following applies: for IC50: human platelet phosphodiesterase, 1 μM cyclic AMP as substrate; for Relative Potency: relative to theophylline (assigned a value of 1) on human platelet phosphodiesterase. The procedure: (§1) The inhibition of cyclic AMP phosphodiesterase activity by the subject compounds was assayed by the method of Filburn and Karn, Analyt. Biochem., 52:505-516 (1973), using 1 μM cyclic AMP as the substrate. Human platelet cyclic AMP phosphodiesterase was obtained from human donors. Platelets were isolated and washed by centrifugation, the membranes ruptured by a sequential freeze-thaw procedure and hypotonic lysis and the soluble enzyme isolated by high speed centrifugation. The enzyme was stored in aliquots at -20° C.
(§2) This table contains the IC50 values for human platelet phosphodiesterase and IC25 values for rat heart phosphodiesterase.

The subject of test [2] is rat heart phosphodiesterase. As to the kind of experiment: Cyclic AMP phosphodiesterase inhibition (rat heart). In kind it is biochemical. The procedure:
as §1, §2

The IC50 is the concentration at which inhibition is half-maximal. Lower therefore signals greater potency in that assay. Consider `O=C1CN2Cc3cc(OCCCC(=O)N(C4CCCCC4)C4CCCCC4)ccc3N=C2N1` [N,N--dicyclohexyl (n = 3, position 7), N,N-dicyclohexyl-4-(2-oxo-1,2,3,5-tetrahydroimidazo[2,1-b]quinazolin-7-yl)oxybutyramide], for which, in test [1], 1.4 nM corresponded to half-maximal inhibition (IC50) and the “Relative Potency” value was 186,000. Further, in test [2], the “Rat Heart IC25” value turned out to be 16 nM.
For `O=C1CN2Cc3cc(OCCCC(=O)NC4CCCCC4)ccc3N=C2N1` [N--cyclohexyl (n = 3, position 7), N-cyclohexyl-4-(2-oxo-1,2,3,5-tetrahydroimidazo-[2,1-b]quinazolin-7-yl)oxybutyramide] the same measures were 72 nM, 38,000 and 180 nM.
For `CN(Cc1ccccc1)C(=O)CCCOc1ccc2c(c1)CN1CC(=O)NC1=N2` [N--methyl-N--benzyl (n = 3, position 7), N-benzyl-N-methyl-4-(2-oxo-1,2,3,5-tetrahydroimidazo[2,1-b]quinazolin-7-yl)oxybutyramide] the same measures were 26 nM, 10,400 and 240 nM.
For `CN(C(=O)CCCOc1ccc2c(c1)CN1CC(=O)NC1=N2)c1ccccc1` [N--methyl-N--phenyl (n = 3, position 7), N-phenyl-N-methyl-4-(2-oxo-1,2,3,5-tetrahydroimidazo[2,1-b]quinazolin-7-yl)oxybutyramide] the same measures were 26 nM, 10,400 and 350 nM.
`CN(C(=O)CCCOc1ccc2c(c1)CN1CC(=O)NC1=N2)C1CCCCCC1` [N-cycloheptyl-N-methyl-4-(2-oxo-1,2,3,5-tetrahydroimidazo[2,1-b]quinazolin-7-yl)oxybutyramide]: in test [1], the 50% inhibitory concentration (IC50) was determined as 1 nM and the “Relative Potency” value is listed as 270,000. Besides, in test [2], the “Rat Heart IC25” value is recorded as under 10 nM.
For `O=C1CN2Cc3cc(OCCCC(=O)N(CCO)C4CCCCC4)ccc3N=C2N1` [N-cyclohexyl-N-(2-hydroxyethyl)-4-(2-oxo-1,2,3,5-tetrahydroimidazo[2,1-b]quinazolin-7-yl)oxybutyramide] the same measures were 12.5 nM, 21,600 and 70 nM.
For `COCCN(C(=O)CCCOc1ccc2c(c1)CN1CC(=O)NC1=N2)C1CCCCC1` [N-cyclohexyl-N-(2-methoxyethyl)-4-(2-oxo-1,2,3,5-tetrahydroimidazo[2,1-b]quinazolin-7-yl)oxybutyramide] the same measures were 1.3 nM, 208,000 and under 10 nM.
For `CCN(C(=O)CCCOc1ccc2c(c1)CN1CC(=O)NC1=N2)C1CCCCC1` [N-cyclohexyl-N-ethyl-4-(2-oxo-1,2,3,5-tetrahydroimidazo[2,1-b]quinazolin-7-yl)oxybutyramide] the same measures were 1.5 nM, 180,000 and under 10 nM.
On to `CC(C)N(C(=O)CCCOc1ccc2c(c1)CN1CC(=O)NC1=N2)C1CCCCC1` [N-cyclohexyl-N-isopropyl-4-(2-oxo-1,2,3,5-tetrahydroimidazo[2,1-b]quinazolin-7-yl)oxybutyramide], for which, in test [1], the IC50 is 3.2 nM and the “Relative Potency” value is reported as 84,000. Further, in test [2], the “Rat Heart IC25” value stood at 15 nM.
For `CN(C(=O)COc1ccc2c(c1)CN1CC(=O)NC1=N2)C1CCCCC1` [N-cyclohexyl-N-methyl-2-(2-oxo-1,2,3,5-tetrahydroimidazo[2,1-b]quinazolin-7-yl)oxyacetamide] the same measures were 820 nM, 330 and 4,400 nM.
For `CN(C(=O)CCCOc1ccc2c(c1)CN1C(=N2)NC(=O)[C@H]1CO)C1CCCCC1` [N-cyclohexyl-N-methyl-4-(2-oxo-3-D-hydroxymethyl-1,2,3,5-tetrahydroimidazo[2,1-b]quinazolin-7-yl)oxybutyramide] the same measures were 18.5 nM, 14,600 and 72 nM.
